According to US20090030037A1, “Sustained Release Formulation and Dosing Schedules of Leukotriene Synthesis Inhibitor for Human Therapy” (deCODE Genetics ehf., priority 2005, published 2009):

Assays:
Lp-PLA2 = assay: Study DG-031-201: Lp-PLA2; format: in vivo, human; details: 2 lower doses (250 mg/day and 500 mg/day)
Description: Genet. 2004). Apart from FLAP, allele A of the SNP SG12S25 in the LTA4 hydrolase gene, another gene in the LT pathway, is also associated with MI, as described in PCT application no. PCT/US03/32556 and PCT/US04/30582 incorporated by reference.
Patients who met the study eligibility criteria were enrolled and randomized into 3 different dose-level groups: (1) 64 patients on 250 mg/day therapy with DG-031 (250 mg q.d.), vs placebo; (2) 64 patients on 500 mg/day therapy with DG-031 (250 mg b.i.d.) vs placebo; and (3) 63 patients on 750 mg/day therapy with DG-031 (250 mg t.i.d.) vs placebo. […] All patients received 3 tablets per day. Treatment periods, 4 weeks in duration each, were separated by a 2-week washout period. The placebo tablets were identical in shape, color, form and taste to the active tablets except that they contained no active drug ingredients. Treatment with DG-031 or placebo was in addition to the subject's standard care, including all medications and treatment plan as prescribed by the subject's cardiologist prior to enrolment. […]
(§1) All data were analyzed according to a pre-established statistical analysis plan (SAP) and by intention-to-treat (ITT). […] The difference between DG-031 and placebo treatment was the primary outcome, assessed separately for each of the biomarkers. […]

LDL cholesterol = assay: Study DG-031-201: LDL cholesterol; format: in vivo, human; details: highest dose of DG-031
Description: Patients who met the study eligibility criteria were enrolled and randomized into 3 different dose-level groups: (1) 64 patients on 250 mg/day therapy with DG-031 (250 mg q.d.), vs placebo; (2) 64 patients on 500 mg/day therapy with DG-031 (250 mg b.i.d.) vs placebo; and (3) 63 patients on 750 mg/day therapy with DG-031 (250 mg t.i.d.) vs placebo. […] All patients received 3 tablets per day. Treatment periods, 4 weeks in duration each, were separated by a 2-week washout period. The placebo tablets were identical in shape, color, form and taste to the active tablets except that they contained no active drug ingredients. Treatment with DG-031 or placebo was in addition to the subject's standard care, including all medications and treatment plan as prescribed by the subject's cardiologist prior to enrolment. A total of 191 subjects were enrolled, with 172 completing all 8 visits or 8 patients short of the target of 180 patients.
as §1, with “(ITT). Each arm of the study, as well as pooled sets (combining dose levels), was considered for the primary analysis.” for “(ITT).”

O=C(O)[C@@H](c1ccc(OCc2ccc3ccccc3n2)cc1)C1CCCC1 [DG-031, (R)-(+)-alpha-cyclopentyl-4-(2-quinolinylmethoxy)-Benzeneacetic acid]
Effects on Lp-PLA2 (Lp-PLA2): not significant
Increase in LDL cholesterol (LDL cholesterol): 8%
